From PubChem BioAssay AID248 (DTP/NCI, 2004)
“And” between values parts separate entries of the source, which are not always exact repeats. Equal entries are not always repeated. Toxic doses and inconclusive results are not listed. Cut-off read from the data, not from the text of the source: active = T/C of 150% or more; inactive = T/C below 125%.

Tested on: L1210 leukemia ip in BDF1 mice, survival T/C
Assay: NCI In Vivo Anticancer Drug Screen. Data for tumor model L1210 Leukemia (intraperitoneal) in B6D2F1 (BDF1) mice
Conditions: endpoint: mean survival time, higher = longer survival
In short: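 Antitumor effect is assessed in tumor-bearing animals. Survival in the compound arm is compared with a vehicle-dosed control arm and expressed as their quotient.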

[1] = dose: 100.0 mg/kg/injection, schedule: Q01DX009 (ip), vehicle: saline with Tween-80
[2] = dose: 100.0 mg/kg/injection, schedule: Q04DX003 (ip), vehicle: Klucel (hydroxypropylcellulose) (HPC)
[3] = dose: 200.0 mg/kg/injection, schedule: Q01DX009 (ip), vehicle: saline with Tween-80
[4] = dose: 200.0 mg/kg/injection, schedule: Q04DX003 (ip), vehicle: Klucel (hydroxypropylcellulose) (HPC)
[5] = dose: 400.0 mg/kg/injection, schedule: Q01DX009 (ip), vehicle: saline with Tween-80
[6] = dose: 400.0 mg/kg/injection, schedule: Q04DX003 (ip), vehicle: Klucel (hydroxypropylcellulose) (HPC)
[7] = dose: 100.0 mg/kg/injection, schedule: Q04DX003 (ip), vehicle: saline with Tween-80
[8] = dose: 200.0 mg/kg/injection, schedule: Q04DX003 (ip), vehicle: saline with Tween-80
[9] = dose: 400.0 mg/kg/injection, schedule: Q04DX003 (ip), vehicle: saline with Tween-80
[10] = dose: 50.0 mg/kg/injection, schedule: Q01DX009 (ip), vehicle: saline
[11] = dose: 100.0 mg/kg/injection, schedule: Q01DX001 (ip), vehicle: saline
[12] = dose: 100.0 mg/kg/injection, schedule: Q01DX009 (ip), vehicle: saline
[13] = dose: 100.0 mg/kg/injection, schedule: Q04DX003 (ip), vehicle: saline
[14] = dose: 200.0 mg/kg/injection, schedule: Q01DX001 (ip), vehicle: saline
[15] = dose: 200.0 mg/kg/injection, schedule: Q01DX009 (ip), vehicle: saline
[16] = dose: 200.0 mg/kg/injection, schedule: Q04DX003 (ip), vehicle: saline
[17] = dose: 100.0 mg/kg/injection, schedule: Q01DX001 (ip), vehicle: Klucel (hydroxypropylcellulose) (HPC)
[18] = dose: 100.0 mg/kg/injection, schedule: Q01DX001 (ip), vehicle: other
[19] = dose: 200.0 mg/kg/injection, schedule: Q01DX001 (ip), vehicle: other
[20] = dose: 400.0 mg/kg/injection, schedule: Q01DX001 (ip), vehicle: other
[21] = dose: 400.0 mg/kg/injection, schedule: Q01DX001 (ip), vehicle: saline
[22] = dose: 100.0 mg/kg/injection, schedule: Q04DX002 (ip), vehicle: Klucel (hydroxypropylcellulose) (HPC)
[23] = dose: 200.0 mg/kg/injection, schedule: Q04DX002 (ip), vehicle: Klucel (hydroxypropylcellulose) (HPC)
[24] = dose: 400.0 mg/kg/injection, schedule: Q04DX002 (ip), vehicle: Klucel (hydroxypropylcellulose) (HPC)
[25] = dose: 50.0 mg/kg/injection, schedule: Q01DX009 (ip), vehicle: saline with Tween-80

Measured: T/C

CCNc1nc(Cl)nc(NCC)n1
inactive: dose: 100.0 mg/kg/injection, schedule: Q01DX009 (ip), vehicle: saline sonified 98 % of control | [1] 95 % of control | [2] 94 % of control and 103 % of control | dose: 200.0 mg/kg/injection, schedule: Q01DX009 (ip), vehicle: saline sonified 98 % of control | [3] 94 % of control | [4] 94 % of control and 103 % of control | dose: 400.0 mg/kg/injection, schedule: Q01DX009 (ip), vehicle: saline sonified 96 % of control | [5] 100 % of control | [6] 102 % of control and 103 % of control

O=C1CC(=C2C(=O)c3ccccc3C2=O)c2ccccc21
inactive: [7] 95 % of control | [8] 97 % of control | [9] 106 % of control

Cc1cc(Cl)c(C)c(C(=O)O)c1Cl
inactive: [10] 107 % of control | dose: 50.0 mg/kg/injection, schedule: Q04DX003 (ip), vehicle: saline 103 % of control | [11] 91 % of control | [12] 107 % of control | [13] 105 % of control | [14] 98 % of control | [15] 105 % of control | [16] 100 % of control

O=C1C(=O)C(C(=O)c2ccccc2)C(=O)C1C(=O)c1ccccc1 (centres undefined)
inactive: dose: 55.0 mg/kg/injection, schedule: Q01DX Z (ip), vehicle: saline 109 % of control | dose: 83.0 mg/kg/injection, schedule: Q01DX Z (ip), vehicle: saline 100 % of control | dose: 125.0 mg/kg/injection, schedule: Q01DX Z (ip), vehicle: saline 93 % of control

CCCCCCCCCCCCCCCCCCCCCCCCC(O)C(=O)NC(CO)C(O)C(O)CCCCCCCCCCCCCC (centres undefined)
inactive: [1] 88 % of control | [7] 87 % of control | [3] 94 % of control | [8] 92 % of control | [5] 88 % of control | [9] 87 % of control

COc1cc(C2=N/C(=C\c3ccccc3O)C(=O)O2)cc(OC)c1OC
inactive: dose: 100.0 mg/kg/injection, schedule: Q04DX002 (ip), vehicle: saline with Tween-80 96 % of control | dose: 200.0 mg/kg/injection, schedule: Q04DX002 (ip), vehicle: saline with Tween-80 89 % of control | dose: 400.0 mg/kg/injection, schedule: Q04DX002 (ip), vehicle: saline with Tween-80 89 % of control

COc1ccc(OC)c(NC(=O)CI)c1
inactive: dose: 25.0 mg/kg/injection, schedule: Q01DX001 (ip), vehicle: Klucel (hydroxypropylcellulose) (HPC) 103 % of control | dose: 50.0 mg/kg/injection, schedule: Q01DX001 (ip), vehicle: Klucel (hydroxypropylcellulose) (HPC) 104 % of control | [17] 98 % of control

CCOC(=O)CN(CCN(CC)CC)c1ccc([N+](=O)[O-])cc1[N+](=O)[O-]
inactive: [18] 92 % of control | [19] 87 % of control | [20] 100 % of control

Nc1ncccn1
inactive: [2] 101 % of control | [4] 93 % of control | [6] 101 % of control

CCOC(=O)c1ccc(Nc2sc(C(=O)c3ccc(C)cc3C)c(N)c2C#N)cc1
inactive: dose: 100.0 mg/kg/injection, schedule: Q04DX002 (ip), vehicle: gum acacia 89 % of control | dose: 200.0 mg/kg/injection, schedule: Q04DX002 (ip), vehicle: gum acacia 92 % of control | dose: 400.0 mg/kg/injection, schedule: Q04DX002 (ip), vehicle: gum acacia 99 % of control

O=S(=O)(Cc1ccccc1)C(=C(N1CCCCC1)N1CCCCC1)S(=O)(=O)Cc1ccccc1
inactive: [11] 102 % of control | [12] 94 % of control | [14] 104 % of control | [15] 93 % of control | [21] 98 % of control | dose: 400.0 mg/kg/injection, schedule: Q01DX009 (ip), vehicle: saline 96 % of control

O=C1c2ccccc2C(=O)N1CC#CCN1C(=O)c2ccccc2C1=O
inactive: [22] 102 % of control | [23] 91 % of control | [24] 112 % of control

CCCCCCC(C)OC(=O)c1ccccc1C(=O)OC(C)CCCCCC (centres undefined)
inactive: dose: 100.0 mg/kg/injection, schedule: Q04DX002 (ip), vehicle: saline 102 % of control | dose: 200.0 mg/kg/injection, schedule: Q04DX002 (ip), vehicle: saline 95 % of control | dose: 400.0 mg/kg/injection, schedule: Q04DX002 (ip), vehicle: saline 102 % of control

CCC1CCCCC1(O)CC (centres undefined)
inactive: [12] 96 % of control | [15] 98 % of control

OCC1C2CCC(C2)C1CO (centres undefined)
inactive: [25] 96 % of control

CC(C=O)C=O
inactive: [17] 91 % of control | dose: 200.0 mg/kg/injection, schedule: Q01DX001 (ip), vehicle: Klucel (hydroxypropylcellulose) (HPC) 88 % of control | dose: 400.0 mg/kg/injection, schedule: Q01DX001 (ip), vehicle: Klucel (hydroxypropylcellulose) (HPC) 89 % of control

CCCCCCCCCCCCCCCCCCC1=NCCN1
inactive: dose: 2.34 mg/kg/injection, schedule: Q01DX009 (ip), vehicle: saline 101 % of control | dose: 4.68 mg/kg/injection, schedule: Q01DX009 (ip), vehicle: saline 96 % of control | dose: 9.37 mg/kg/injection, schedule: Q01DX009 (ip), vehicle: saline 86 % of control | dose: 18.75 mg/kg/injection, schedule: Q04DX003 (ip), vehicle: saline 90 % of control | dose: 75.0 mg/kg/injection, schedule: Q01DX001 (ip), vehicle: acetone 97 % of control

COc1c2occc2c(OC)c2c(=O)cc(/C=C/c3ccncc3)oc12
inactive: [11] 97 % of control | [14] 94 % of control | [21] 101 % of control

CCS(=O)(=O)CCN1C(=O)C2C3CCC(O3)C2C1=O (centres undefined)
inactive: [22] 98 % of control | [23] 95 % of control | [24] 117 % of control

CCCCCC1(C)OCC(CCl)O1 (centres undefined)
inactive: dose: 222.0 mg/kg/injection, schedule: Q01DX Z (ip), vehicle: saline 107 % of control | dose: 333.0 mg/kg/injection, schedule: Q01DX Z (ip), vehicle: saline 97 % of control | dose: 500.0 mg/kg/injection, schedule: Q01DX Z (ip), vehicle: saline 89 % of control

CCc1oc(=O)c2ccccc2c1-c1ccccc1
inactive: [25] 93 % of control | [1] 90 % of control | [3] 93 % of control

CC(=O)OC(CC(O)(C(F)(F)F)C(F)(F)F)C(C)(C)C (centres undefined)
inactive: dose: 25.0 mg/kg/injection, schedule: Q01DX009 (ip), vehicle: saline 104 % of control | [10] 102 % of control | [7] 98 % of control

O=C(Oc1c(Cl)cc(S(=O)(=O)F)cc1Cl)c1ccccc1Cl
inactive: [22] 92 % of control | [23] 89 % of control | [24] 89 % of control

O=C(Nc1ccc(Nc2ccccc2)cc1)Nc1ccccc1Cl
inactive: dose: 100.0 mg/kg/injection, schedule: Q01DX009 (ip), vehicle: Klucel (hydroxypropylcellulose) (HPC) 90 % of control | [2] 95 % of control | dose: 200.0 mg/kg/injection, schedule: Q01DX009 (ip), vehicle: Klucel (hydroxypropylcellulose) (HPC) 90 % of control | [4] 92 % of control | dose: 400.0 mg/kg/injection, schedule: Q01DX009 (ip), vehicle: Klucel (hydroxypropylcellulose) (HPC) 92 % of control | [6] 90 % of control

CN(C)S(=O)(=O)/C=C/c1ccccc1
inactive: [4] 95 % of control | [6] 109 % of control

CC(=O)C(C)(CCC#N)CCC#N
inactive: [25] 105 % of control | [1] 91 % of control | [7] 108 % of control | [8] 104 % of control

O=C(O)CN(Cc1ccccc1)Cc1ccccc1
inactive: [2] 95 % of control | [4] 98 % of control | [6] 98 % of control

CS(=O)CCNC(=O)NS(=O)(=O)c1ccc(Cl)cc1 (centres undefined)
inactive: [13] 97 % of control | [16] 98 % of control | dose: 400.0 mg/kg/injection, schedule: Q04DX003 (ip), vehicle: saline 108 % of control

S=c1nc[nH]c2cc[nH]c12
inactive: [18] 95 % of control | [19] 98 % of control | [20] 101 % of control

c1c[nH]c(N=Nc2ccc(N=Nc3ncc[nH]3)cc2)n1
inactive: [25] 100 % of control | [1] 94 % of control | [3] 94 % of control
